# How the values were obtained:
# [1] = Optical properties: excitation/emission maxima and absolute fluorescence quantum yield; type: physicochemical
# Method: Analysis were performed with a Waters Atlantis dC18 5 μm, 4.6×150 mm column using a gradient of phase A CH3COONH4 10 mM and phase B acetonitrile. Measured mass/charge ratios are listed for each compound. A dual-beam UV-VIS spectrophotometer (Lambda 40, Perkin Elmer) was used to determine the absorbance (Abs) of the compounds of the invention. […] The measurements were performed using an excitation wavelength at maximum absorbance of different dyes, and the sample was excited with a […] Xenon Light Source. Detection was performed by photomultiplier tubes (PMT-NIR) cooled detector or by TBX-04 detector. Dye solutions were carefully prepared to have an absorbance lower than 0.1 (optical densities) to minimize re-absorption phenomena. The compounds of the invention have been characterized in terms of their optical properties in vitro in aqueous medium (i.e., water/PBS pH 7.4) and in a clinical chemistry control serum (Seronorm, Sero SA), mimicking the chemical composition and optical properties of human serum. All dye or dye-conjugate solutions were freshly prepared.
# [2] = target: T1, human serum albumin (HSA) (Homo sapiens, UniProt P02768); assay: Binding affinity to human serum albumin (absorbance peak shift or ultrafiltration method); conditions: for Kd: phosphate buffer, 25° C., one of the two methods, read-out: HSA affinity (KA) (converted)
# T1 construct: purchased Sigma Aldrich A9511
# Method: Binding affinity to human serum albumin (HSA; Sigma Aldrich, A9511) was measured using two methods, according to the level of binding affinity of the compounds.
# The first method, optimal for compounds which strongly interact with HSA, is based on the analysis of the absorbance spectrum peak shift after the incubation of the dye in solutions containing HSA. Briefly, the samples were incubated at a fixed concentration (1 μM) with HSA dilutions (1×10^−6-4×10^−4M), in phosphate buffer for 5 min in the spectrophotometer at 25° C. before measurements. The measure was performed at the maximum absorbance wavelength of the shifted peak.
# The second method, optimal for compound with low affinity for HSA, is based on measuring the variation of the absorbance of solutions containing the dye and various concentrations of HSA after ultrafiltration. Briefly, each compound was incubated at a fixed concentration (2 μM) with HSA dilutions (1×10^−6-4×10^−4 M), in phosphate buffer. The samples were centrifuged (10,000 g for 30 min at 25° C.) in a Microcon device (10 kDa MWCO, Amicon Ultra-0.5 Centrifugal Filter Unit with Ultracel-10 membrane, Millipore) and the absorbance measurements of the filtrates were obtained with the spectrophotometer at the maximum absorbance wavelength of the fluorophore.
# For both methods, the affinity constant (KA, M^−1) was calculated by fitting the raw data with the following formula:
# wherein ΔA/b=Absorbance measured (b=1 cm) KRL=KA calculated by regression analysis (curve fitting) Δε·Rt calculated by regression analysis (curve fitting) [L]=Albumin concentration
# In the first method, ΔA/b corresponds to the absorbance measured for each sample, whereas in the second method ΔA/b is obtained subtracting the absorbance of the control sample (dye without HSA) to the absorbance of each other sample.
# However, the measurement of the affinity constant is more precise when the suitable method is used as a function of the affinity level of the compound.
# [3] = target: T2, human recombinant integrin αvβ3 (Homo sapiens, UniProt P05106+P06756); assay: Integrin receptor affinity ELISA (vitronectin-coated plates); type: binding
# T2 construct: purchased R&D Systems
# [4] = tested on: WM-266-4 human melanoma cells; assay: Cell uptake by flow cytometry (FACS); type: cell-based
# Method: The human melanoma cell line WM-266-4 (ATCC, CRL-1676) was used as in vitro model to assess the cell uptake of representative integrin-binding Compounds 1 and 3, based on the high expression of the integrin receptors, particularly αvβ3, on the membrane of these cells (Capasso et al., PlosOne 2014).
# Adherent cells at about 70% confluence were incubated with the compounds 1 or 3 (1 μM) for 2h at 37° C. (5% CO2) in presence of Dulbecco's Modified Eagle's Medium (DMEM) supplemented with 10% FBS, 2 mM glutamine, 100 IU/mL penicillin and 100 μg/mL streptomycin. After two washing steps with PBS, cells were detached using 0.1 mM EDTA in PBS, centrifuged and suspended in buffer (PBS, 0.5% BSA, 0.1% NaN3) for flow cytometry experiments. Fluorescence Activated Cell Sorting (FACS) was used to detect the fluorescence signal within the cells, as measure of cell uptake. Samples were excited with an Argon laser and the emission detected using a 670 nm longpass filter. Values of fluorescence intensity were obtained from the histogram statistic produced by the instrument software.
# The residual internalization was calculated by considering the value of fluorescence intensity in absence of the competitor as 100%.
# Furthermore, to assess the effect of biological fluids on the cell uptake, parallel experiments were performed incubating the cells with a compounds of the invention in presence of human serum from male AB plasma (Sigma Aldrich, H4522) or human albumin (Sigma Aldrich, A9511). The residual internalization was calculated by considering the value of fluorescence intensity in absence of the serum as 100%. Such uptake assessment also represents an indication of the percentage of compound which is sequestered by the plasma proteins, in particular albumin, when it diffuses through the vascular compartment before reaching the tissue of interest and the particular targeted receptor.
# [5] = Biodistribution and elimination by optical imaging after intravenous administration; type: in vivo, Balb/c nu/nu mice; conditions: ex vivo, 24 hours after iv 1 nmol/mouse
# Method: Biodistribution and elimination of the fluorescent agents of the invention was evaluated by optical imaging after intravenous administration in male Balb/c nu/nu mice, 6-10 weeks of age (Charles River Laboratories). Briefly, mice housed 4 per cage and fed with VRF1 (P) sterile diet (Special Diets Services Ltd) up to the end of the acclimation period (5 days). Then, AIN-76a rodent diet irradiated (Research Diets), a special diet that reduces auto-fluorescence, was used up to the end of the experiments. Imaging experiments were performed using the preclinical optical system IVIS Spectrum (Perkin Elmer).
# In vivo imaging was performed under gas anesthesia (Sevofluorane 6-8% in oxygen). Animals were intravenously injected with the compounds and imaged longitudinally at 30 min, 1 h, 2 h, 3 h, 4 h, 6 h, and 24 h post-administration. Thus, animals were euthanized by anesthesia overdose, and the main tissues and organs of interest were excised for ex vivo optical imaging. Regions of interest (ROIs) were drawn on the tissues of interest for each fluorescence image at every time point to evaluate signal intensity (expressed as Average adiant Efficiency). The ratio between the fluorescence signal in the muscle (background tissue) and excretory organs (kidney, liver) was then calculated to assess the contrast. The tissue half-life was calculated by fitting the fluorescence signal decay in the muscle with a bi-exponential decay equation model using GraphPad Prism Software (version 5 for Windows).
Max Em ([1]; PBS pH 7.4),Max Ex ([1]; PBS pH 7.4),Φ (absolute fluorescence quantum yield) ([1]; PBS pH 7.4),Φ (absolute fluorescence quantum yield) ([1]; Seronorm control serum),Kd [2],HSA KA ([2]; first method (absorbance peak shift)),HSA KA ([2]; second method (ultrafiltration)),Molecule,IC50 [3],"Residual cell uptake in presence of human serum ([4]; 1 μM, 2h at 37° C., uptake without serum = 100%)","Residual uptake in the presence of c(RGDfK) as competitor ([4]; 100 μM c(RGDfK), uptake without competitor = 100%)",Kidney to muscle ratio [5],Liver to muscle ratio [5]
785 nm,755 nm,8.9%,13.4%,196 µM,–,–,CC(CC[N+]1=C(/C=C/C=C/C=C/C=C2/N(CCCCCC(=O)O)c3ccc(C(=O)NCC(O)C(O)C(O)C(O)CO)cc3C2(C)C)C(C)(C)c2cc(C(=O)NCC(O)C(O)C(O)C(O)CO)ccc21)S(=O)(=O)[O-] (stereo not drawn) [Compound 4],–,–,–,–,–
675 nm,656 nm,35.6%,35.9%,> 1000 µM,–,–,CC1(C)C(/C=C/C=C/C=C2/N(CCCCCC(=O)O)c3ccc(C(=O)NCC(O)C(O)C(O)C(O)CO)cc3C2(C)C)=[N+](CCCCS(=O)(=O)[O-])c2ccc(C(=O)NCC(O)C(O)C(O)C(O)CO)cc21 (stereo not drawn) [Compound 6],–,–,–,–,–
675 nm,655 nm,35.1%,35.1%,289 µM,–,–,CC1(C)C(/C=C/C=C/C=C2/N(CCCCCC(=O)O)c3ccc(C(=O)NC(CO)(CO)CO)cc3C2(C)C)=[N+](CCCCS(=O)(=O)[O-])c2ccc(C(=O)NC(CO)(CO)CO)cc21 [Compound 7],–,–,–,–,–
665 nm,645 nm,27.0%,35.6%,–,–,–,"CN1/C(=C/C=C/C=C/C2=[N+](CCCCCC(=O)O)c3ccc(S(=O)(=O)[O-])cc3C2(C)C)C(C)(C)c2cc(S(=O)(=O)O)ccc21 [Sulfo-Cy5, reference compound]",–,–,–,–,–
–,–,–,–,–,"215,000 M^−1","216,000 M^−1",IRDye 800CW carboxylate [reference compound],–,–,–,–,–

Molecule,Max Em ([1]; PBS pH 7.4),Max Ex ([1]; PBS pH 7.4),Φ (absolute fluorescence quantum yield) ([1]; PBS pH 7.4),Φ (absolute fluorescence quantum yield) ([1]; Seronorm control serum),Kd [2],HSA KA ([2]; first method (absorbance peak shift)),HSA KA ([2]; second method (ultrafiltration)),IC50 [3],"Residual cell uptake in presence of human serum ([4]; 1 μM, 2h at 37° C., uptake without serum = 100%)","Residual uptake in the presence of c(RGDfK) as competitor ([4]; 100 μM c(RGDfK), uptake without competitor = 100%)",Kidney to muscle ratio [5],Liver to muscle ratio [5]
CC(CC[N+]1=C(/C=C/C=C/C=C/C=C2/N(CCCCCC(=O)NCC3C[C@@H]4CC[C@H]5C(=O)N[C@@H](CCCNC(=N)N)C(=O)NCC(=O)N[C@@H](CC(=O)O)C(=O)N[C@H]3C(=O)N45)c3ccc(C(=O)NCC(O)C(O)C(O)C(O)CO)cc3C2(C)C)C(C)(C)c2cc(C(=O)NCC(O)C(O)C(O)C(O)CO)ccc21)S(=O)(=O)[O-] (stereo partly drawn) [Compound 3],785 nm,757 nm,10.6%,11.7%,238 µM,–,–,0.00264 ± 0.00035 µM,75%,15%,2.90 ± 0.55,2.50 ± 0.32
"CC1(C)C(/C=C/C=C/C=C/C=C2\N(CCCCS(=O)(=O)O)c3ccc4ccccc4c3C2(C)C)=[N+](CCCCS(=O)(=O)[O-])c2ccc3ccccc3c21 [ICG, Indocyanine Green, reference compound]",810 nm,780 nm,1.5%,7.8%,2.88 µM,–,–,–,–,–,–,–

# — US20220242853A1, “MODIFIED CYANINE DYES AND CONJUGATES THEREOF” (BRACCO IMAGING S.P.A., priority 2019, published 2022)
